Data: patent US11691951B2 (Curtana Pharmaceuticals, Inc., priority 2015, dated 2023)
Counter-ions that a name gives are not always drawn.

What was measured:
[1] = tested on: GBM4 cells (human glioblastoma neurosphere cell culture); assay: GBM4 viability assay (Cell Titer Glo luminescence, 3 days); format: cell-based; details: 72 h, 3 days incubation
Description: Example 283: GBM4 and GBM8 Viability Assay
Cell culture medium was prepared from a NSA proliferation kit (Neurocult) and NeuroCult supplements (Stemcell Tech Cat. #05751) and treated with 20 μL of 10 μg/mL rh EGF, 10 μL of 10 μg/mL rh bFGF and 10 μL of 0.2% Heparin. In this medium, human glioblastoma cells were cultured in ultra-low attachment tissue culture flasks until 1×10^6 cells ml was achieved (GBM4 and GBM8 are distinct neurosphere cell cultures derived from these human patient tissues). GBM4 and GBM8 cells were dissociated and 10 mL of media containing 4000 human glioblastoma cells per 90 uL were transferred to an ultra-low binding 96-well plate and incubated at 37° C. overnight. On the following day, 10 μL of a 1% DMSO solution of test compound in assay medium was added to wells containing the cell suspension and the mixture incubated at 37° C. for 3 days. At this time, the plate was removed from the incubator and allowed to reach room temperature. After about 30 minutes, 50 μL of Cell Titer Glo solution was added to each well and the plate shaken for 1 minute at low speed. After 10 minutes luminescence was recorded using a Tecan Safire2 reader.
Reduction in luminescence compared to DMSO only control wells was used to determine the percentage inhibition of cell growth. IC50s were calculated using the % inhibition of luminescence for serial dilutions of compounds fitted to a 4-parameter fit within the Prism (San Diego) curve fitting program.

[2] = tested on: GBM8 cells (human glioblastoma neurosphere cell culture); assay: GBM8 viability assay (Cell Titer Glo luminescence, 3 days); format: cell-based; details: 72 h, 3 days incubation
Procedure, shortened: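 Patient-derived neurosphere cells (4000/well) in NeuroCult medium with rh EGF, rh bFGF and heparin, ultra-low attachment, dosed after overnight settling; 3 days at 37 °C. CellTiter-Glo luminescence versus DMSO controls gave % growth inhibition; IC50 from 4-parameter fit of serial dilutions.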

Row | Structure (SMILES) | IC50 [1] [µM] | IC50 [2] [nM]
1 | Cc1cc(NC2CCCNC2)nc(NC(=O)Nc2ccc(Cl)c(Cl)c2)n1 (racemic) [Compound 24, (±)-2-[3-(3,4-dichlorophenyl)ureido]-6-methyl-4-(3-piperidylamino)pyrimidine hydrochloride] | < 1 | < 1000
2 | CCN1CCCC(Nc2cc(C)nc(NC(=O)Nc3ccc(Cl)c(Cl)c3)n2)C1 (racemic) [Compound 30, (±)-2-[3-(3,4-dichlorophenyl)ureido]-4-(1-ethyl-piperidin-3-yl-amino)-6-methylpyrimidine] | 10 to 30 | 10000 to 30000
3 | CCN1CCCC(Nc2cc(C)nc(N3CCN(c4ccc(Cl)c(Cl)c4)C3=O)n2)C1 (racemic) [Compound 34, (±)-1-(3,4-dichlorophenyl)-3-[4-(1-ethyl-3-piperidylamino)-6-methyl-2-pyrimidinyl]-2-imidazolidinone] | 10 to 30 | 1000 to 10000
4 | Cc1cc(N2CCOCC2)nc(NC(=O)Nc2ccc(Cl)c(Cl)c2)n1 [Compound 4, 1-(3,4-dichlorophenyl)-3-(6-methyl-4-morpholino-2-pyrimidinyl) Urea] | 10 to 30 | 1000 to 10000
5 | CNCCN(C)c1cc(C)nc(NC(=O)Nc2ccc(Cl)c(Cl)c2)n1 [Compound 6, 1-(N-methyl{2-[3-(3,4-dichlorophenyl)ureido]-6-methyl-4-pyrimidinyl}amino)-2-(methylamino)ethane] | 1 to 10 | 1000 to 10000
6 | Cc1cc(NCCCO)nc(NC(=O)Nc2ccc(Cl)c(Cl)c2)n1 [Compound 7, 3-{2-[3-(3,4-dichlorophenyl)ureido]-6-methyl-pyrimidin-4-yl}-aminopropanol] | < 1 | < 1000
7 | Cc1cc(NCCCN(C)C)nc(NC(=O)Nc2ccc(Cl)c(Cl)c2)n1 [Compound 8, 1-{2-[3-(3,4-Dichlorophenyl)ureido]-6-methyl-pyrimidin-4-yl}-amino-3-(dimethylamino)propane] | < 1 | < 1000
8 | Cc1cc(Nc2ccncc2)nc(NC(=O)Nc2ccc(Cl)c(Cl)c2)n1 [Compound 39, 2-[3-(3,4-dichlorophenyl)ureido]-6-methyl-4-(4-pyridylamino)-pyrimidine] | 1 to 10 | 1000 to 10000
